Measurements published in US5541168A, “Substituted 2-(phosphinyloxymethyl)-1,2,5-thiadiazolidin-3-one 1,1-dioxides and compositions and method of use thereof” (Sterling Winthrop Inc., priority 1994, dated 1996).
Where two headings read alike, the source gives them in different places.

Biological target: T1, human leukocyte elastase (Homo sapiens, UniProt P08246)
T1 sequence (P08246 30-247 limits assumed): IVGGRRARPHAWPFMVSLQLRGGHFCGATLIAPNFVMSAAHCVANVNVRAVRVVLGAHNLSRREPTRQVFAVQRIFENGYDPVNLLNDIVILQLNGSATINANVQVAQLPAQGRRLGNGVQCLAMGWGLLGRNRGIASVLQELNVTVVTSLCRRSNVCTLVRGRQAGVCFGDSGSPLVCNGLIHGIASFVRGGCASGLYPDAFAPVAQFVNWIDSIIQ
Experiment: human leukocyte elastase inhibitory activity (MeOSuc-Ala-Ala-Pro-Val-pNA substrate, absorbance progress curves)
Type: biochemical
Protocol: The test compound (inhibitor) is dissolved in DMSO in a vial to produce an inhibitor stock solution which has a concentration in the range of 200-1000 μM. The inhibitor stock solution is diluted (1:4, 1:16 and 1:64) into assay vials (vials 1, 2 and 3 respectively) containing 2.4 mL of buffer solution (50 mM N-[2-hydroxyethyl]piperazine-N'-[2-ethanesulfonic acid]/NaOH, 500 mM NaCl, pH 7.8 at 25° C.) and DMSO is added so that the total volume in each vial is 3.2 mL. 70 μL, 50 μL, 35 μL and 25 μL of inhibitor from assay vial 1 is placed into the first four wells of a 96-well microtiter plate and each well is made up to 90 μL total volume with the addition of a 25% DMSO/buffer solution. The inhibitor from assay vials 2 and 3 is processed in a similar manner and placed in wells 5-12 respectively to afford a total of 12 different inhibitor concentrations. Four wells (wells 13-16) containing 90 μL of the 25% DMSO/buffer solution but no inhibitor are also run simultaneously with the inhibited wells as a control. 150 μL of substrate solution (prepared by the addition of 500 μL of the human leukocyte elastase (HLE) substrate MeOSuc-Ala-Ala-Pro-Val-pNA (18.7 mM in DMSO) to 19.5 mL of buffer solution) is then added simultaneously into each of the 16 wells and the solution in each well was thoroughly mixed.
The 96-well microtiter plate is placed into a Microplate Reader #89815A spectrophotometer and 110 μL of the enzyme solution (prepared as follows: a mixture of 20 mL of buffer solution and 20 mg of bovine serum albumen is gently vortexed in a scintillation vial and 5 μL HLE stock solution (1 mg/mL dissolved in deionized water) is added) is added simultaneously to each of the 16 wells. Each of the solutions in the wells is throughly mixed and then the time-dependent absorbance data is collected at an absorbance of 410 nm until the assay is complete. It should be noted that although this assay method can be done manually, it is preferred to perform the assay robotically using a Hewlett Packard MicroAssay System Robot.
A plot of the absorbance versus time data thus obtained affords progress curves the final slope of which is equal to the final steady-state velocities (VF). Using the program ENZFITTER (Elsevier software), the progress curves for the four control assays ([I]=0) are fit by linear regression to yield the enzyme reaction velocity values in the absences of inhibitor (Vo) which are averaged to produce a single fixed value. The inhibition constant Ki (nM) is then obtained from a plot of [formula] which affords a linear plot wherein: [formula] and [S] is the concentration of the substrate and Km is the Michaelis constant.
Table V summarizes the results obtained from the testing of representative compounds of the invention for human leukocyte elastase inhibitory activity.

| Ki (human leukocyte elastase, substrate MeOSuc-Ala-Ala-Pro-Val-pNA, pH 7.8, 25° C. buffer, read-out: Ki) | SMILES | Ki |
| --- | --- | --- |
|  | CCOP(=O)(OCC)OCN1C(=O)C2CCCCN2S1(=O)=O (centres unmarked) [17(f), 2-(diethoxyphosphinyloxymethyl)-1,2,5-thiadiazolo[2,3-a]3,3a,4,5,6,7-hexahydropyridine-3-one 1,1-dioxide] | 500 nM |
|  | CCOP(=O)(OCC)OCN1C(=O)C(C(C)C)N(C)S1(=O)=O (centres unmarked) [2(i), 2-(diethoxyphosphinyloxymethyl)-4-isopropyl-5-methyl-1,2,5-thiadiazolidin-3-one 1,1-dioxide] | 680 nM |
|  | CCCC1C(=O)N(COP(=O)(OCC)OCC)S(=O)(=O)N1C (centres unmarked) [1(i), 2-(diethoxyphosphinyloxymethyl)-4-propyl-5-methyl-1,2,5-thiadiazolidin-3-one 1,1-dioxide] | 2 nM |
|  | CCCC1NS(=O)(=O)N(COP(=O)(OCC)OCC)C1=O (centres unmarked) [3(f), 2-(diethoxyphosphinyloxymethyl)-4-propyl-1,2,5-thiadiazolidin-3-one 1,1-dioxide] | 25 nM |
| 1.5 nM | CC(C)CCC1C(=O)N(COP(=O)(OCc2ccccc2)OCc2ccccc2)S(=O)(=O)N1C (centres unmarked) [4(j), 2-(dibenzyloxyphosphinyloxymethyl)-4-(3-methylbutyl)-5-methyl-1,2,5-thiadiazolidin-3-one 1,1-dioxide] |  |
